This is an account of results in publication PMC9610793, “Novel Aporphine- and Proaporphine–Clerodane Hybrids Identified from the Barks of Taiwanese Polyalthia longifolia (Sonn.) Thwaites var. pendula with Strong Anti-DENV2 Activity” (Pharmaceuticals, 2022).

Data set [1] concerns DENV2. The experiment in a line: In vitro anti-DENV2 post-infection assay: DENV2 RNA level by RT-qPCR in DENV2-infected Huh-7 cells. Particulars: for IC50 / EC50: Dengue virus; for IC50: DENV2, Huh-7, 72 h, read-out: IC50 (concentration of the compound resulting in a 50% inhibition in virus production); for EC50: DENV2-infected Huh-7 cells, range over compounds 1–4; for SI (selectivity index, SI = CC50/IC50): CC50 in uninfected Huh-7 cells / IC50 against DENV2. It counts as cell-based, DENV serotype 2 (strain 16681). As to the method:
Concerning their biological activity, the anti-DENV2 activity of polyalongarins A–D (1–4) was examined using post-infection assay. The DENV2-infected Huh-7 cells were incubated with each of 1–4 at a concentration of 5, 10, or 20 μM for 72 hrs (0.2 μM celastrol and 0.1% DMSO served as positive control and mock control, respectively). […] Based on previous reports, a compound that diminishes the DENV activity by 90% but presents a 50% cytotoxic concentration (CC50) > 15 μM is considered a “hit”. By this definition, compounds 1–4 are good hits without doubt.
(§1) Figure 5 In vitro anti-DENV2 assay for 1–4. (A) DENV2-infected/uninfected Huh-7 cells were incubated with celastrol (Cela, 0.2 μM, positive control) or indicated concentrations of 1–4 (5 to 25 μM) for 72 h. Total DENV2 RNA expression (%) was extracted and quantified. The DENV2 RNA level was measured by RT-qPCR. The DENV2 RNA expression was normalized by cellular GAPDH mRNA. (B) DENV2-infected Huh-7 cells were treated with 10 μM of 1–4. The NS2B protein expression was analyzed by western blotting with anti-NS2B and anti-GAPDH antibodies (a loading control). (C) The cell viability (%) was determined by the XTT method. Treatment with 0.1% DMSO served as a mock control. The results are expressed as the means ± standard errors of the means (SEM) of triplicate experiments.
Huh-7 human liver carcinoma cell line, purchased from Bioresources Collection and Research Center, Taiwan, were maintained in Dulbecco’s modified Eagle’s medium (DMEM) supplemented with 10% fetal bovine serum (FBS), 1% non-essential amino acids (NEAA), and 1% penicillin and streptomycin at 37 °C in a humidified 5% CO2 incubator. The DENV serotype 2 (strain 16681) was directly from the Centers for Disease Control, Department of Health, Taiwan, and was amplified in Aedes albopictus C6/36 cell line (CRL-1660, ATCC, USA). C6/36 cells were cultured in RPMI 1640 medium supplemented with 2% FBS. Huh-7 cells were seeded at a density of 5 × 10^4 cells/mL in the 24-well plate for 16–20 h and then infected with DENV2 at a multiplicity of infection (MOI) of 0.1 PFU/cell for 2 h at 37 °C. The viral titer was determined in a plaque assay in the Huh-7 cells. Then, DENV2-infected Huh-7 cells were washed with PBS and refilled, respectively, with DMEM−2% FBS medium containing […] (positive control), 0.1% DMSO (mock control), and various indicating concentration of test compounds. After incubation at 37 °C for 72 h, DENV2-infected Huh-7 cells were harvested and cell lysates were prepared for quantification of DENV RNA by RT-qPCR. Total cellular RNA was extracted using Total RNA Miniprep Purification Kit (GMbiolab, Taiwan) according to the manufacturer’s instructions.
A general note: Real-time PCR tracks product formation cycle by cycle.

A short description of data set [2]: Cytotoxic assay (XTT cell viability). It counts as cell-based. The following applies: human, uninfected Huh-7 cells, read-out: CC50 (concentration of the compound causing a 50% growth inhibition of uninfected Huh-7 cells). On the procedure:
as §1
In structural elucidation, the optical rotations were determined using a JASCO P-1020 polarimeter (Jasco Co., Tokyo, Japan); the ultraviolet spectra (UV) were recorded on a JASCO V530 UV/VIS spectrophotometer; the circular dichroism spectroscopy (CD) were recorded on a JASCO J-815 spectrophotometer; the infrared spectra (IR) were recorded on a Mattson Genesis II FT-IR spectrophotometer (Thermo Nicolet, Madison, WI, USA); electrospray ionization mass (ESIMS) and high-resolution ESIMS data were measured using a VG Biotech Quattro 5022 mass spectrometer (VG Biotech, UK); nuclear magnetic resonance (NMR) spectra were collected on a Varian Unity Inova-400 MHz NMR system; the single crystal X-ray diffraction of pure compounds was determined by Bruker APEX II X-ray single crystal diffractometer. In chemical isolation and separation, column chromatography (CC) was applied including silica gel 60 (70–230 and 230–400 mesh, Merck, Darmstadt, Germany), Sephadex LH-20 (Pharmacia), and pre-coated silica gel TLC plates (aluminum Merck Silica gel 60 F254). […] In biological evaluation, cell viability/cytotoxicity assay was evaluated using CellTiter 96 AQueous One Solution Cell Proliferation Assay (Promega, Madison, WI, USA) according to the manufacturer’s instructions, where the color intensity was detected at 490 nm using a 550 BioRad plate-reader for determining the number of viable cells in proliferation. Computational modeling analyzed by PyMOL 2.0 software (creator is Warren L. DeLano; published by Schrödinger, Inc. 2017; and the latest vision is PyMOL 2.5 vision).
Huh-7 cells were seeded in 96-well plates at a density 5 × 10^4 cells/well in 120 μL of culture medium and incubated for 6 hr in a humidified CO2 (5%) atmosphere. […] Then, the XTT method was applied to cell viability evaluation: cells were dyed by 2,3-bis(2-methyloxy-4-nitro-5-sulfophenyl)-2H-tetrazolium-5-carboxanilide and recorded by an enzyme-linked immunosorbent assay (ELISA) plate reader (at UV 490 nm). […]
(In general: Tetrazolium dyes change colour on reduction, which living cells bring about.)

On to `CC1=C(O)C(=O)C=C2C1=CC=C1[C@@]2(C)CC[C@@]2(C)[C@@H]3C[C@](C)(C(=O)O)CC[C@]3(C)CC[C@]12C` [Celastrol, reference compound], for which the IC50 in data set [1] is 0.12 ± 0.01 µM.
One may read the EC50 as the midpoint of the concentration-response curve. Read a low EC50 as higher potency in that assay. As for `CC1=CCCC2C1(C)CCC(C)C2(C)CCC1=CC(=O)OC1N1CCc2cc3c(c4c2C1Cc1ccccc1-4)OCO3` (stereo not shown) [polyalongarin A (1), Polyalongarin A], the CC50 at 72 h in data set [2] was above 200 µM. Besides, in data set [1], the IC50 worked out at 4.46 ± 0.12 µM and the EC50 was 2.8 to 6.4 µM.
Turning to `COc1c2c3c(c(OC)c1OC)-c1ccccc1C[C@H]3N([C@@H]1OC(=O)C=C1CC[C@@]1(C)[C@H](C)CC[C@@]3(C)C(C)=CCC[C@H]13)CC2` [polyalongarin B (2), Polyalongarin B], in data set [2], the CC50 at 72 h is 50.4 ± 10.2 µM. Further, in data set [1], the “SI (selectivity index, SI = CC50/IC50)” value turned out to be 18; the IC50 was determined as 2.8 ± 0.23 µM; the EC50 lay in the range of 2.8 to 6.4 µM.
In the case of `COc1cc2c(cc1O)CC1c3c(cc(OC)c(OC)c3-2)CCN1C1OC(=O)C=C1CCC1(C)C(C)CCC2(C)C(C)=CCCC21` (stereo not shown) [polyalongarin C (3), Polyalongarin C], the CC50 at 72 h in data set [2] came out at 69.1 ± 14 µM. In data set [1], the “SI (selectivity index, SI = CC50/IC50)” value came out at 21.3; the IC50 came out at 3.24 ± 0.16 µM; the EC50 lay within 2.8 to 6.4 µM.
Take `COc1cc2c3c(c1OC)C1(C=CC(=O)C=C1)C[C@H]3N([C@@H]1OC(=O)C=C1CC[C@@]1(C)[C@H](C)CC[C@@]3(C)C(C)=CCC[C@H]13)CC2` [polyalongarin D (4), Polyalongarin D]: the CC50 at 72 h in data set [2] is 94.5 ± 10.2 µM. Also, in data set [1], the “SI (selectivity index, SI = CC50/IC50)” value came to 14.9; the IC50 was 6.36 ± 0.09 µM; the EC50 was in the range of 2.8 to 6.4 µM.
